Measurements from the Kinase Knowledgebase extract (Sharma et al. 2016).
pIC50: −log10 of the molar value.

How the values were obtained:
PIK3CA (human) = PIK3CA (human) (UniProt P42336); assay: Inhibition of PIK3CA Kinase Activity
PIK3CB (Human) = PIK3CB (Human) (UniProt P42338); assay: Inhibition of PIK3CB Kinase Activity
PIK3CD (Human) = PIK3CD (Human) (UniProt O00329); assay: Inhibition of PIK3CD Kinase Activity
PIK3CG (human) = PIK3CG (human) (UniProt P48736); assay: Inhibition of PIK3CG Kinase Activity
Sequence of PIK3CG (human) (P48736 whole entry, looked up): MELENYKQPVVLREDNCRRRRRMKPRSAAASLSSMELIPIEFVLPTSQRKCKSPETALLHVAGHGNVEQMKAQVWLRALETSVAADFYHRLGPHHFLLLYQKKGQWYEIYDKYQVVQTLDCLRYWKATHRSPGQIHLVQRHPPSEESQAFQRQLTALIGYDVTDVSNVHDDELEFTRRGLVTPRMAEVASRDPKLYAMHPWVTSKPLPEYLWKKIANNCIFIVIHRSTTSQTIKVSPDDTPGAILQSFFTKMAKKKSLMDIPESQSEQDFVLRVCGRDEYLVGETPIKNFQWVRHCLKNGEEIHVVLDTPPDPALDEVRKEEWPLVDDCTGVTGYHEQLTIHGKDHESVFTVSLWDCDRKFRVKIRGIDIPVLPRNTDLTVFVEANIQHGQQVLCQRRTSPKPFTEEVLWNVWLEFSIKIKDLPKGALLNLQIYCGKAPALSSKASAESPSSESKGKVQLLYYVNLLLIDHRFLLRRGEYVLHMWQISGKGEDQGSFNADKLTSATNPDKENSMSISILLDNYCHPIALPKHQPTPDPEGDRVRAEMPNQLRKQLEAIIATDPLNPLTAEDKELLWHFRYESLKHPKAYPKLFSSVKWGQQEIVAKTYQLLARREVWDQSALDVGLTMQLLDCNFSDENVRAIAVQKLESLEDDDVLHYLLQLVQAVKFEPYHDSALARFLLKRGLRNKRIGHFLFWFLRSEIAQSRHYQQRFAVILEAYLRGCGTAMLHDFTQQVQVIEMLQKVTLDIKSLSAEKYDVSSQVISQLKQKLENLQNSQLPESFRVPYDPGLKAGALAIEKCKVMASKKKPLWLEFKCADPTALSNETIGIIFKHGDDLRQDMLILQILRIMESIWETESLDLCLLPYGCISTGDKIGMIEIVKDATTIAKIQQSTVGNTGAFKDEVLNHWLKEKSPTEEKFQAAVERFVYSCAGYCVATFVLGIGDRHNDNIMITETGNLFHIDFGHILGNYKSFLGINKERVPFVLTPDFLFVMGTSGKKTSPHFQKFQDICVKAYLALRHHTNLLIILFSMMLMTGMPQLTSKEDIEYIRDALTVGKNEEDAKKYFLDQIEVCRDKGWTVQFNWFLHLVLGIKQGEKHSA

Sequence of PIK3CA (human) (P42336 whole entry, looked up): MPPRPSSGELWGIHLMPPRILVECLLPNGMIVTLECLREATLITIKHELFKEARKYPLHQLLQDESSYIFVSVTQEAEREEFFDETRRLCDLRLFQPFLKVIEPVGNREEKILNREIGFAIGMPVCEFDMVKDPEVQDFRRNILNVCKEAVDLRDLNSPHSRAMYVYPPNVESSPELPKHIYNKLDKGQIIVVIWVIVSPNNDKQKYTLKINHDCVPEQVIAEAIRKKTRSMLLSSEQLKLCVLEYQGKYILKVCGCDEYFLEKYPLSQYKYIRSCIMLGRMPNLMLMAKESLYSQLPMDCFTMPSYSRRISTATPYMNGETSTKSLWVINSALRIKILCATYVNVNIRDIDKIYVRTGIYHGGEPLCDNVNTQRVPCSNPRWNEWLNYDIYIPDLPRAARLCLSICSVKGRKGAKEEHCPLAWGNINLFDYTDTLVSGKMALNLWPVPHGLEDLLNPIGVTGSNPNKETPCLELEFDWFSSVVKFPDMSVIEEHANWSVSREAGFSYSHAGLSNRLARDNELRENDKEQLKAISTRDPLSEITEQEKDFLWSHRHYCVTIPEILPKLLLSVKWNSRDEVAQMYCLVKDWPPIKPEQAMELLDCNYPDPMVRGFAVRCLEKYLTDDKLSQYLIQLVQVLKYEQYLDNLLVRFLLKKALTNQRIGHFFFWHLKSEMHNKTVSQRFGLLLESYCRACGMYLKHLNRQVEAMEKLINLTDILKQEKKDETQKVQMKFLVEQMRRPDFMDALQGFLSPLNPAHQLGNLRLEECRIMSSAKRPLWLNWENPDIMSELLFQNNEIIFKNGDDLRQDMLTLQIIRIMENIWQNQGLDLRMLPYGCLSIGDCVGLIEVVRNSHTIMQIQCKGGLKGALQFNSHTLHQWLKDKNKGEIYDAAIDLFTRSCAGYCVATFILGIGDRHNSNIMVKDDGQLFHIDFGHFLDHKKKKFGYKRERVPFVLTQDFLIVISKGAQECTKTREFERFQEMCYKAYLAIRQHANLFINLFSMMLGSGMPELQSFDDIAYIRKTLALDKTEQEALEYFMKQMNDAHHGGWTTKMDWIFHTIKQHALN
Sequence of PIK3CD (Human) (O00329 whole entry, looked up): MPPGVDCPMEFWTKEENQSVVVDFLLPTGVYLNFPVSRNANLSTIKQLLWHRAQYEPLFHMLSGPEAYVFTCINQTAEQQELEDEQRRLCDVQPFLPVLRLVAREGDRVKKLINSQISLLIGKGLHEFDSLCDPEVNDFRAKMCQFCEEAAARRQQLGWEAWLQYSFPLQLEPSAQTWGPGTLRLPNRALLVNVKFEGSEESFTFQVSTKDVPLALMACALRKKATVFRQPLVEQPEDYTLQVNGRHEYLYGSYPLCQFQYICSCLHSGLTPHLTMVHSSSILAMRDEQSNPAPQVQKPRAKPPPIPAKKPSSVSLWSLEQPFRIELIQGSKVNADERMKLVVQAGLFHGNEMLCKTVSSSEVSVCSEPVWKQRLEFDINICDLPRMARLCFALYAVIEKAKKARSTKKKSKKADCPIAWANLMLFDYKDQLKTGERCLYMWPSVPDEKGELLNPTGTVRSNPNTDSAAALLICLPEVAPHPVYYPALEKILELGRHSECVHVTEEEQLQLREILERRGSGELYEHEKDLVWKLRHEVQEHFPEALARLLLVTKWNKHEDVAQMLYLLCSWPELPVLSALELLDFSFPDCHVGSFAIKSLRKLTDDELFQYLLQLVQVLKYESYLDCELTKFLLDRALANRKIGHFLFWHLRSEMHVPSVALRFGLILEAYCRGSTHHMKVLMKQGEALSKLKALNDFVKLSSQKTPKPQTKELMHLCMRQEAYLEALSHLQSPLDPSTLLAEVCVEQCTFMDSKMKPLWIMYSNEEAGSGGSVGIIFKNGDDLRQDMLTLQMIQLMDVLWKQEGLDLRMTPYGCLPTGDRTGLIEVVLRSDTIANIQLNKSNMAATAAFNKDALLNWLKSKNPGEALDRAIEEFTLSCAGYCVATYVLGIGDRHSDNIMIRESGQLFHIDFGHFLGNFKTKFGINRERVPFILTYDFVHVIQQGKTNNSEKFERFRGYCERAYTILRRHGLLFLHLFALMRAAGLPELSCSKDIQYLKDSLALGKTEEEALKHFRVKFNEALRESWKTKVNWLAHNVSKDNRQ
Sequence of PIK3CB (Human) (P42338 whole entry, looked up): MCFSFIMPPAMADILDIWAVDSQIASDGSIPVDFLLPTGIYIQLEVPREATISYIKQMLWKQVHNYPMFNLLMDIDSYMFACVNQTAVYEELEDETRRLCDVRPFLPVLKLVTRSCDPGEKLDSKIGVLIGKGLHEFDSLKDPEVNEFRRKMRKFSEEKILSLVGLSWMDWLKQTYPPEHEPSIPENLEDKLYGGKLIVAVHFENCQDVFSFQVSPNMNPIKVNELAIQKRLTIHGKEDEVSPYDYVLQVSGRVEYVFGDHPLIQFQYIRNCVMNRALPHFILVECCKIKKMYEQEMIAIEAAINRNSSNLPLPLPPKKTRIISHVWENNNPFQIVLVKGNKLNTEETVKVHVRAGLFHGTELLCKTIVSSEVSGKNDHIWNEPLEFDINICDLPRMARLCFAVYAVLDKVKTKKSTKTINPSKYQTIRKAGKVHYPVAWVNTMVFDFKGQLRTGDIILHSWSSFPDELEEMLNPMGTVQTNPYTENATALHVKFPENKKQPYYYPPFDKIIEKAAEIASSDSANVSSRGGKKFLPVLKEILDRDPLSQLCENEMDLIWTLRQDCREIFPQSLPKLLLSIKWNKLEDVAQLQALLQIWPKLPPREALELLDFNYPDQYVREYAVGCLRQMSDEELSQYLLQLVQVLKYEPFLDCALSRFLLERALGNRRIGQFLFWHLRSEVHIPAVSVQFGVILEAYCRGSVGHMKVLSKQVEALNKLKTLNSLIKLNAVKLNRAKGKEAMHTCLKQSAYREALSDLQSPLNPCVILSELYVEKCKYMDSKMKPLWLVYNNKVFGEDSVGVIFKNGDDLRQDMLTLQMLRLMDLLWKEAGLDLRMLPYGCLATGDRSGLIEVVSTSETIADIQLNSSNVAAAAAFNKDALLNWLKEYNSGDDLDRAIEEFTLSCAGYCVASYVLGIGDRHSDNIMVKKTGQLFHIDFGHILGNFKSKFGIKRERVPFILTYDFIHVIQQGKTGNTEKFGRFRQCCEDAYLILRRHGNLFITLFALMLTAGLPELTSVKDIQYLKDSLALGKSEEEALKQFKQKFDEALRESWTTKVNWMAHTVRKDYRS

Row | pIC50 (PIK3CA (human)) | pIC50 (PIK3CB (Human)) | pIC50 (PIK3CD (Human)) | pIC50 (PIK3CG (human)) | SMILES
1 | 7.23 | 5.86 | 6.51 |  | COc1ccc(-c2ccc3nc(C)c(-c4cccnc4)n3n2)cc1OC
2 | 6.03 |  |  |  | COc1cccc(NC(=O)NCCCOc2ccc(-c3ccc4nc(C)c(-c5cnc(N)c(C(F)(F)F)c5)n4n3)cc2OC)c1
3 | 7.20 | 5.98 | 6.82 | 5.93 | COc1cc(-c2ccc3nc(C)c(-c4cnc(N)c(C(F)(F)F)c4)n3n2)ccc1OC1CCNCC1
4 | 5.45 |  |  |  | COc1cc(-c2ccc3nc(C)c(-c4cnc(N)c(C(F)(F)F)c4)n3n2)ccc1OCCCNC(=O)c1ccc(F)c(F)c1
5 | 5.43 |  |  |  | COc1cc(-c2ccc3nc(C)c(-c4cnc(N)c(C(F)(F)F)c4)n3n2)ccc1OCCNC(=O)Nc1cccc(C(F)(F)F)c1
